PubChem BioAssay (NCI)
Several values for one entry are separate records, joined by “and”; a condition that tells them apart may be missing. Identical values can stand only once.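 Five compound concentrations were applied to cells in 96-well plates for 48 hours; endpoints were derived by simple linear interpolation of the resulting dose-response curve. GI50 is the concentration that inhibits growth by half. The concentration for full growth arrest is given as TGI.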

Tests used:
Experiment in all cases: DTP human tumour cell line panel, 48 h
MCF7 breast = system: MCF7 breast
MALME-3M melanoma = system: MALME-3M melanoma
MOLT-4 leukemia = system: MOLT-4 leukemia
SK-OV-3 ovarian = system: SK-OV-3 ovarian
IGROV1 ovarian = system: IGROV1 ovarian
SF-295 CNS = system: SF-295 CNS
RPMI-8226 leukemia = system: RPMI-8226 leukemia
786-0 renal = system: 786-0 renal
SW-620 colon = system: SW-620 colon
OVCAR-3 ovarian = system: OVCAR-3 ovarian
T-47D breast = system: T-47D breast
SR leukemia = system: SR leukemia
NCI-H522 lung = system: NCI-H522 lung
PC-3 prostate = system: PC-3 prostate
DU-145 prostate = system: DU-145 prostate
MDA-MB-435 = system: MDA-MB-435
COLO 205 colon = system: COLO 205 colon
OVCAR-4 ovarian = system: OVCAR-4 ovarian
M14 melanoma = system: M14 melanoma
HL-60(TB) leukemia = system: HL-60(TB) leukemia
U251 CNS = system: U251 CNS
OVCAR-8 ovarian = system: OVCAR-8 ovarian
SNB-19 CNS = system: SNB-19 CNS
A498 renal = system: A498 renal
NCI-H226 lung = system: NCI-H226 lung
HCT-116 colon = system: HCT-116 colon
UO-31 renal = system: UO-31 renal
SN12C renal = system: SN12C renal
OVCAR-5 ovarian = system: OVCAR-5 ovarian
SK-MEL-5 melanoma = system: SK-MEL-5 melanoma
HCT-15 colon = system: HCT-15 colon
SK-MEL-28 melanoma = system: SK-MEL-28 melanoma
SF-268 CNS = system: SF-268 CNS
HCC-2998 colon = system: HCC-2998 colon
SF-539 CNS = system: SF-539 CNS
BT-549 breast = system: BT-549 breast
HOP-92 NSCLC = system: HOP-92 NSCLC
NCI/ADR-RES ovarian = system: NCI/ADR-RES ovarian
TK-10 renal = system: TK-10 renal
CAKI-1 renal = system: CAKI-1 renal
EKVX NSCLC = system: EKVX NSCLC
HOP-62 NSCLC = system: HOP-62 NSCLC
NCI-H23 lung = system: NCI-H23 lung
ACHN renal = system: ACHN renal
NCI-H460 lung = system: NCI-H460 lung
CCRF-CEM leukemia = system: CCRF-CEM leukemia
SNB-75 CNS = system: SNB-75 CNS
LOX IMVI melanoma = system: LOX IMVI melanoma
HS 578T breast = system: HS 578T breast
UACC-62 melanoma = system: UACC-62 melanoma
MDA-MB-231 breast = system: MDA-MB-231 breast
RXF 393 renal = system: RXF 393 renal
KM12 colon = system: KM12 colon
K-562 leukemia = system: K-562 leukemia
A549 NSCLC = system: A549 NSCLC
HT29 colon = system: HT29 colon
UACC-257 melanoma = system: UACC-257 melanoma
SK-MEL-2 melanoma = system: SK-MEL-2 melanoma

## COc1ccc(Cl)c(Nc2nc3ccccc3nc2NS(=O)(=O)c2cccc(NC(=O)C(C)(C)N)c2)c1
MCF7 breast
  GI50: 2.66 µM and 1.9 µM
  TGI: 16.8 µM and > 10 µM
MALME-3M melanoma
  GI50: 10.2 µM and > 10 µM
  TGI: 24.9 µM and > 10 µM
MOLT-4 leukemia
  GI50: 3.5 µM and 3.66 µM
  TGI: 17.4 µM and > 10 µM
SK-OV-3 ovarian
  GI50: 5 µM and 1.89 µM
  TGI: 18.6 µM and > 10 µM
IGROV1 ovarian
  GI50: 1.41 µM and 0.686 µM
  TGI: 6.63 µM and 4.86 µM
SF-295 CNS
  GI50: 4.7 µM and 2.56 µM
  TGI: 18.8 µM and > 10 µM
RPMI-8226 leukemia
  GI50: 13.4 µM and > 10 µM
  TGI: 52.8 µM and > 10 µM
786-0 renal
  GI50: 6.19 µM and 5.38 µM
  TGI: 19.8 µM and > 10 µM
SW-620 colon
  GI50: 11.6 µM and > 10 µM
  TGI: 26.2 µM and > 10 µM
OVCAR-3 ovarian
  GI50: 7.68 µM and 4.12 µM
  TGI: 21.3 µM and > 10 µM
T-47D breast
  GI50: 0.443 µM and 0.638 µM
  TGI: 5.05 µM and 5.77 µM
SR leukemia
  GI50: 10.2 µM and > 10 µM
  TGI: 28.1 µM and > 10 µM
NCI-H522 lung
  GI50: 14.7 µM and > 10 µM
  TGI: 30.5 µM and > 10 µM
PC-3 prostate
  GI50: 3.42 µM and 2.65 µM
  TGI: 17.5 µM and > 10 µM
DU-145 prostate
  GI50: 12.1 µM and > 10 µM
  TGI: 25 µM and > 10 µM
MDA-MB-435
  GI50: 11.5 µM and > 10 µM
  TGI: 25.2 µM and > 10 µM
COLO 205 colon
  GI50: 7.53 µM and 2.86 µM
  TGI: 22.3 µM and > 10 µM
OVCAR-4 ovarian
  GI50: 14.8 µM and > 10 µM
  TGI: 28.3 µM and > 10 µM
M14 melanoma
  GI50: 12.5 µM and > 10 µM
  TGI: 29 µM and > 10 µM
HL-60(TB) leukemia
  GI50: 5.93 µM and 2.1 µM
  TGI: 20.7 µM and > 10 µM
U251 CNS
  GI50: 11 µM and > 10 µM
  TGI: 24.1 µM and > 10 µM
OVCAR-8 ovarian
  GI50: 14 µM and > 10 µM
  TGI: 32.8 µM and > 10 µM
SNB-19 CNS
  GI50: 12.4 µM and > 10 µM
  TGI: 25.9 µM and > 10 µM
A498 renal
  GI50: 3.1 µM and 3.23 µM
  TGI: 13.6 µM and > 10 µM
NCI-H226 lung
  GI50: 15.3 µM and > 10 µM
  TGI: 40.2 µM and > 10 µM
HCT-116 colon
  GI50: 12.8 µM and > 10 µM
  TGI: 25.8 µM and > 10 µM
UO-31 renal
  GI50: 1.9 µM and 2.03 µM
  TGI: 13.5 µM and > 10 µM
SN12C renal
  GI50: 9.79 µM and > 10 µM
  TGI: 22.3 µM and > 10 µM
OVCAR-5 ovarian
  GI50: 4.76 µM and > 10 µM
  TGI: 22.5 µM and > 10 µM
SK-MEL-5 melanoma
  GI50: 12.1 µM and > 10 µM
  TGI: 24.6 µM and > 10 µM
HCT-15 colon
  GI50: 9.76 µM and 6.97 µM
  TGI: 22 µM and > 10 µM
SK-MEL-28 melanoma
  GI50: 7.93 µM and > 10 µM
  TGI: 22.2 µM and > 10 µM
SF-268 CNS
  GI50: 10.9 µM and 9.94 µM
  TGI: 25.5 µM and > 10 µM
HCC-2998 colon
  GI50: 13 µM and 5.73 µM
  TGI: 26.6 µM and > 10 µM
SF-539 CNS
  GI50: 7.35 µM and 4.42 µM
  TGI: 20.4 µM and > 10 µM
BT-549 breast
  GI50: 4.87 µM and 4.42 µM
  TGI: 18.4 µM and > 10 µM
HOP-92 NSCLC
  GI50: 1.57 µM and 0.358 µM
  TGI: 9.94 µM and 5.42 µM
NCI/ADR-RES ovarian
  GI50: 12.1 µM and > 10 µM
  TGI: 32.3 µM and > 10 µM
TK-10 renal
  GI50: 5.68 µM and 4.24 µM
  TGI: 20.1 µM and > 10 µM
CAKI-1 renal
  GI50: 6.49 µM
  TGI: > 10 µM
EKVX NSCLC
  GI50: 6.25 µM and > 10 µM
  TGI: 21 µM and > 10 µM
HOP-62 NSCLC
  GI50: 4.66 µM and > 10 µM
  TGI: 20 µM and > 10 µM
NCI-H23 lung
  GI50: 13.2 µM and > 10 µM
  TGI: 29.1 µM and > 10 µM
ACHN renal
  GI50: 10.5 µM and > 10 µM
  TGI: 22.6 µM and > 10 µM
NCI-H460 lung
  GI50: 6.51 µM and 4.52 µM
  TGI: 20.8 µM and > 10 µM
CCRF-CEM leukemia
  GI50: 12.3 µM and > 10 µM
  TGI: 31.9 µM and > 10 µM
SNB-75 CNS
  GI50: 1.35 µM and 0.481 µM
  TGI: 10 µM and 6.6 µM
LOX IMVI melanoma
  GI50: 6.52 µM and 4.14 µM
  TGI: 20.2 µM and > 10 µM
HS 578T breast
  GI50: 2.37 µM and 1.69 µM
  TGI: 15.1 µM and > 10 µM
UACC-62 melanoma
  GI50: 13 µM
  TGI: 26.6 µM
MDA-MB-231 breast
  GI50: 14.5 µM and > 10 µM
  TGI: 32.6 µM and > 10 µM
RXF 393 renal
  GI50: 1.89 µM and 2.62 µM
  TGI: 9.03 µM and > 10 µM
KM12 colon
  GI50: 12 µM and > 10 µM
  TGI: 30.9 µM and > 10 µM
K-562 leukemia
  GI50: 14.9 µM and > 10 µM
  TGI: 32.6 µM and > 10 µM
A549 NSCLC
  GI50: 7.7 µM and > 10 µM
  TGI: 21.4 µM and > 10 µM
HT29 colon
  GI50: 9.87 µM and 6.23 µM
  TGI: 25.9 µM and > 10 µM
UACC-257 melanoma
  GI50: 12.1 µM and > 10 µM
  TGI: 25.1 µM and > 10 µM
SK-MEL-2 melanoma
  GI50: 14.9 µM and > 10 µM
  TGI: 32.1 µM and > 10 µM
